Columns and labels:
[1] = molecular target: KAT2A (Homo sapiens, UniProt Q92830); assay: KAT2A degradation, Western Blot (Jess), NCI-H1048 cells; assay type: cell-based; design: degrader, Western blot (Jess); details: NCI-H1048 cells, KAT2A, 24 h, Western Blot, vs DMSO; read-out: KAT2A NCI-H1048 DC50
Protocol: (§1) MOLM-13 cells or NCI-H1048 cells were used for Western Blot analysis of KAT2A degradation. KAT2B degradation can be measured in a similar manner with NCI-H1048 cells.
(§2) H1048 cells were maintained at 37° C. in 5% CO2 and 90% humidity in HITES medium with 5% fetal bovine serum (FBS). HITES medium was […] with the following additions: 0.005 mg/ml Insulin, 0.01 mg/ml Transferrin, 30 nM Sodium selenite, 10 nM Hydrocortisone, 10 nM beta-estradiol, and extra 2 mM L-glutamine (for final concentration of 4.5 mM). Cells were plated in full media at 1 million cells/2 mL in a 6-well tissue culture treated plate with or without compounds for 24 h at 37° C. in 5% CO2.
(§3) MOLM-13 cells or NCI-H1048 cells were washed with PBS, then lysed with RIPA buffer containing 1×protease and phosphatase inhibitors (SantaCruz Biotechnologies Cat #sc-24948A). Protein was isolated by centrifugation at 12,000×g for 10 minutes at 4° C. and supernatant was collected. Protein was quantified via Bradford assay. Samples were diluted to 4 μg lysate in 16 μL RIPA buffer and then 4 μL of Jess Sample Buffer. Samples were heated at 95° C. for 5 minutes. Samples were loaded onto 12-230 kDa Jess™ Separation Module, 8×25 capillary cartridges (SM-W004, Biotechne). Antibodies loaded were: Primary antibody for KAT2A (GCN5L2 (C26A10) Rabbit mAb (3305, CST)) and for KAT2B (PCAF (C14G9)) Rabbit mAb (3378, CST) at 1:1000 and Anti-Rabbit Detection Module for Jess™ (Cat No #DM-001, Biotechne). Signal was detected by chemiluminescence.
(§4) DC50 values were determined from percent reduction of protein as compared to the DMSO control.

[2] = molecular target: KAT2B (Homo sapiens, UniProt Q92831); assay: KAT2B degradation, Western Blot (Jess), NCI-H1048 cells; assay type: cell-based; design: degrader, Western blot (Jess); details: NCI-H1048 cells, KAT2B, 24 h, Western Blot, vs DMSO; read-out: KAT2B NCI-H1048 DC50
Protocol: as §1, §2, §3, §4

Sequence of KAT2A (Q92830 whole entry): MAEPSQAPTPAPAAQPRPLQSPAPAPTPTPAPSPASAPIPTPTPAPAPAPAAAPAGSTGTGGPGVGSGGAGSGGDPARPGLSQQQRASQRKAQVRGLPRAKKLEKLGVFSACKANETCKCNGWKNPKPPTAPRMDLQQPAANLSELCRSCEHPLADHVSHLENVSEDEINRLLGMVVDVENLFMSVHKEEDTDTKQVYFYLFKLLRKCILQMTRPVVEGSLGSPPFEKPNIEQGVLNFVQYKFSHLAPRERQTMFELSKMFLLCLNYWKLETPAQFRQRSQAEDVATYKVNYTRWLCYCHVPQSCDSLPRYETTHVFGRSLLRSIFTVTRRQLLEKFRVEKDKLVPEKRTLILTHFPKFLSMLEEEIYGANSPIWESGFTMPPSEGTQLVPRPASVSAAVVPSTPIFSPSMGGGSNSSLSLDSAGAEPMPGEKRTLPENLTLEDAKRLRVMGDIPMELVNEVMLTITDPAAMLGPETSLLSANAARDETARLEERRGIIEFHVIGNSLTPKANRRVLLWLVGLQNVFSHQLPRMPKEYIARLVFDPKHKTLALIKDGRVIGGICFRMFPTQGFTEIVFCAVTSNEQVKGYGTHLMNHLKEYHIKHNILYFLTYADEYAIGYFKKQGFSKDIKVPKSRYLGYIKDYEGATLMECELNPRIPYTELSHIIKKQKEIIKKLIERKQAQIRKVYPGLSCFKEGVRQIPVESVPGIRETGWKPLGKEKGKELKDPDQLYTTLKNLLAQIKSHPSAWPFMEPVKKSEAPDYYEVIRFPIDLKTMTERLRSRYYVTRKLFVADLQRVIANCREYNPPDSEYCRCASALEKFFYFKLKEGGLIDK
Sequence of KAT2B (Q92831 whole entry): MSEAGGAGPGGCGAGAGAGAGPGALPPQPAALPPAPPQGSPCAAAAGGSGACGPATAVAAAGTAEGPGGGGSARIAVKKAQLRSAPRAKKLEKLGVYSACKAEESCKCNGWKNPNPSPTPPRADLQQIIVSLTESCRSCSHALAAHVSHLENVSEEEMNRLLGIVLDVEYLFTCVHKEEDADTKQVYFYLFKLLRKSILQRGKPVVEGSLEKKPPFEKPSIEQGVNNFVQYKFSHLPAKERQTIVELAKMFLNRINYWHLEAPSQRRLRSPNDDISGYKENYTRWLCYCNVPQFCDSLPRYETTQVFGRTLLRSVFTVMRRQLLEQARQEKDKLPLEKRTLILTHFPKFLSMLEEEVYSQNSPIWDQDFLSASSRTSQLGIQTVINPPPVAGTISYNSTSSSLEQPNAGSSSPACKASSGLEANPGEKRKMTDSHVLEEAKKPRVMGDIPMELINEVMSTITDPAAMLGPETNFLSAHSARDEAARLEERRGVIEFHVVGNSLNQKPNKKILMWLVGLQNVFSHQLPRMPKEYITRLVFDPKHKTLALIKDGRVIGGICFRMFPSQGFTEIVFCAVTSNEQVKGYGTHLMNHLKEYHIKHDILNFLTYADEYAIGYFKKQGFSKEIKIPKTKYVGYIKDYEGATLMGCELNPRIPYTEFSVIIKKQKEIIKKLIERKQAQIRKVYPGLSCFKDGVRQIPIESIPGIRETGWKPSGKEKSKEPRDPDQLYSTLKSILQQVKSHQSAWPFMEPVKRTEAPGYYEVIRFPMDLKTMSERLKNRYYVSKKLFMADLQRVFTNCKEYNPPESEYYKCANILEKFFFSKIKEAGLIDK

For CN1C[C@H](Nc2cnn(C)c(=O)c2Br)C[C@H](c2ccc(C(=O)N3CCC4(CC3)CCN(c3ccc(C5CCC(=O)NC5=O)cc3OC(F)(F)F)CC4)cc2)C1 (stereo partly drawn) [Compound 259], the DC50 [1] was under 1 nM and the DC50 [2] was 1 to 30 nM.
Work on CN1C[C@H](Nc2cnn(C)c(=O)c2Cl)C[C@H](c2ccc(C(=O)N3CCC4(CC3)CCN(c3ccc(C5CCC(=O)NC5=O)cc3OC(F)(F)F)CC4)cc2)C1 (stereo partly drawn) [Compound 260] yielded a DC50 [1] of under 1 nM and a DC50 [2] of 1 to 30 nM.
CN1C[C@H](Nc2cnn(C)c(=O)c2Br)C[C@H](c2ccc(C(=O)N3CCC4(CC3)CCN(c3ccc(C5CCC(=O)NC5=O)cn3)CC4)cc2)C1 (stereo partly drawn) [Compound 261] was tested, and the DC50 [1] was under 1 nM and the DC50 [2] was under 1 nM.
CN1C[C@H](Nc2cnn(C)c(=O)c2Cl)C[C@H](c2ccc(C(=O)N3CCC4(CC3)CCN(c3ccn(C5CCC(=O)NC5=O)c(=O)c3)CC4)cc2)C1 (stereo partly drawn) [Compound 262] was tested, and the DC50 [1] was under 1 nM and the DC50 [2] was 1 to 30 nM.
COc1cc(N2CCC3(CCN(C(=O)c4ccc([C@H]5C[C@@H](Nc6cnn(C)c(=O)c6Br)CN(C)C5)cc4)CC3)CC2)ccc1C1CCC(=O)NC1=O (stereo partly drawn) [Compound 263] showed a DC50 [1] of under 1 nM and a DC50 [2] of under 1 nM.
Work on CN1C[C@H](Nc2cnn(C)c(=O)c2Cl)C[C@H](c2ccc(C(=O)N3CCC4(CC3)CCN(c3ncc(C5CCC(=O)NC5=O)cn3)CC4)cc2)C1 (stereo partly drawn) [Compound 264] yielded a DC50 [1] of under 1 nM and a DC50 [2] of under 1 nM.
With Cc1cc(N2CCC3(CCN(C(=O)c4ccc([C@H]5C[C@@H](Nc6cnn(C)c(=O)c6Br)CN(C)C5)cc4)CC3)CC2)ccc1C1CCC(=O)NC1=O (stereo partly drawn) [Compound 265] the DC50 [1] was under 1 nM and the DC50 [2] was under 1 nM.
Cc1cc(N2CCC3(CCN(C(=O)c4ccc([C@H]5C[C@@H](Nc6cnn(C)c(=O)c6Cl)CN(C)C5)cc4)CC3)CC2)ncc1C1CCC(=O)NC1=O (stereo partly drawn) [Compound 266] showed a DC50 [1] of under 1 nM and a DC50 [2] of under 1 nM.
For Cc1cc(C2CCC(=O)NC2=O)cnc1N1CCC2(CCN(C(=O)c3ccc([C@H]4C[C@@H](Nc5cnn(C)c(=O)c5Cl)CN(C)C4)cc3)CC2)CC1 (stereo partly drawn) [Compound 267], the DC50 [1] was under 1 nM and the DC50 [2] was under 1 nM.
Molecule CN1C[C@H](Nc2cnn(C)c(=O)c2Cl)C[C@H](c2ccc(C(=O)N3CCC4(CC3)CCN(c3ccc(CN5CCC(=O)NC5=O)cc3)CC4)cc2)C1 [Compound 268] has a DC50 [1] of under 1 nM and a DC50 [2] of over 30 nM.
With Cc1c(N[C@@H]2C[C@H](c3ccc(C(=O)N4CCC5(CC4)CCN(c4ccc(C6CCC(=O)NC6=O)cc4OC(F)(F)F)CC5)cc3)CN(C)C2)cnn(C)c1=O (stereo partly drawn) [Compound 269] the DC50 [1] was 1 to 30 nM and the DC50 [2] was over 30 nM.
Work on CN1C[C@H](Nc2cnn(C)c(=O)c2Cl)C[C@H](c2ccc(C(=O)N3CCC4(CC3)CCN(c3cc(C(F)(F)F)c(C5CCC(=O)NC5=O)cn3)CC4)cc2)C1 (stereo partly drawn) [Compound 270] yielded a DC50 [1] of over 30 nM and a DC50 [2] of over 30 nM.
CN1C[C@H](Nc2cnn(C)c(=O)c2Br)C[C@H](c2ccc(C(=O)N3CCC4(CC3)CCN(c3ncc(C5CCC(=O)NC5=O)cn3)CC4)cc2)C1 (stereo partly drawn) [Compound 271] showed a DC50 [1] of under 1 nM and a DC50 [2] of under 1 nM.
For Cc1c(N[C@@H]2C[C@H](c3ccc(C(=O)N4CCC5(CC4)CCN(c4cnc(C6CCC(=O)NC6=O)c(F)c4)CC5)cc3)CN(C)C2)cnn(C)c1=O (stereo partly drawn) [Compound 272], the DC50 [1] was under 1 nM and the DC50 [2] was over 30 nM.
With Cc1cc(N2CCC3(CCN(C(=O)c4ccc([C@H]5C[C@@H](Nc6cnn(C)c(=O)c6Br)CN(C)C5)cc4)CC3)CC2)ncc1C1CCC(=O)NC1=O (stereo partly drawn) [Compound 273] the DC50 [1] was under 1 nM and the DC50 [2] was under 1 nM.
Cc1cc(C2CCC(=O)NC2=O)cnc1N1CCC2(CCN(C(=O)c3ccc([C@H]4C[C@@H](Nc5cnn(C)c(=O)c5Br)CN(C)C4)cc3)CC2)CC1 (stereo partly drawn) [Compound 274] was tested, and the DC50 [1] was under 1 nM and the DC50 [2] was under 1 nM.
In the case of Cc1cc(C2CCC(=O)NC2=O)c(F)cc1N1CCC2(CCN(C(=O)c3ccc([C@H]4C[C@@H](Nc5cnn(C)c(=O)c5Br)CN(C)C4)cc3)CC2)CC1 (stereo partly drawn) [Compound 275], the DC50 [1] is reported as 1 to 30 nM and the DC50 [2] is reported as 1 to 30 nM.
Molecule CN1C[C@H](Nc2cnn(C)c(=O)c2Cl)C[C@H](c2ccc(C(=O)N3CCC4(CC3)CCN(c3cc(F)c(C5CCC(=O)NC5=O)cc3F)CC4)cc2)C1 (stereo partly drawn) [Compound 276] has a DC50 [1] of under 1 nM and a DC50 [2] of under 1 nM.
Work on CN1C[C@H](Nc2cnn(C)c(=O)c2Cl)C[C@H](c2ccc(C(=O)N3CCC4(CC3)CCN(c3ccc(C5CCC(=O)NC5=O)c(OC(F)(F)F)c3)CC4)cc2)C1 (stereo partly drawn) [Compound 277] yielded a DC50 [1] of over 30 nM and a DC50 [2] of over 30 nM.
For COc1cc(N2CCC3(CCN(C(=O)c4ccc([C@H]5C[C@@H](Nc6cnn(C)c(=O)c6Br)CN(C)C5)cc4)CC3)CC2)c(F)cc1C1CCC(=O)NC1=O (stereo partly drawn) [Compound 278], the DC50 [1] was 1 to 30 nM and the DC50 [2] was over 30 nM.
COc1cc(N2CCC3(CCN(C(=O)c4ccc([C@H]5C[C@@H](Nc6cnn(C)c(=O)c6Cl)CN(C)C5)cc4)CC3)CC2)c(F)cc1C1CCC(=O)NC1=O (stereo partly drawn) [Compound 279] showed a DC50 [1] of under 1 nM and a DC50 [2] of over 30 nM.
Work on Cc1cc(N2CCC3(CCN(C(=O)c4ccc([C@H]5C[C@@H](Nc6cnn(C)c(=O)c6Cl)CN(C)C5)cc4)CC3)CC2)cc(C)c1C1CCC(=O)NC1=O (stereo partly drawn) [Compound 283] yielded a DC50 [1] of under 1 nM and a DC50 [2] of under 1 nM.
Work on COc1cc(N2CCC3(CCN(C(=O)c4ccc([C@H]5C[C@@H](Nc6cnn(C)c(=O)c6Br)CN(C)C5)cc4)CC3)CC2)c(C)cc1C1CCC(=O)NC1=O (stereo partly drawn) [Compound 284] yielded a DC50 [1] of under 1 nM and a DC50 [2] of over 30 nM.
Work on COc1cc(N2CCC3(CCN(C(=O)c4ccc([C@H]5C[C@@H](Nc6cnn(C)c(=O)c6Cl)CN(C)C5)cc4)CC3)CC2)c(C)cc1C1CCC(=O)NC1=O (stereo partly drawn) [Compound 285] yielded a DC50 [1] of under 1 nM and a DC50 [2] of over 30 nM.
COc1cc(N2CCC3(CCN(C(=O)c4ccc([C@H]5C[C@@H](Nc6cnn(C)c(=O)c6Cl)CN(C)C5)cc4)CC3)CC2)cc(C)c1C1CCC(=O)NC1=O (stereo partly drawn) [Compound 286] gave a DC50 [1] of under 1 nM and a DC50 [2] of 1 to 30 nM.
In the case of COc1cc(N2CCC3(CCN(C(=O)c4ccc([C@H]5C[C@@H](Nc6cnn(C)c(=O)c6Br)CN(C)C5)cc4)CC3)CC2)cc(C)c1C1CCC(=O)NC1=O (stereo partly drawn) [Compound 287], the DC50 [1] is reported as under 1 nM and the DC50 [2] is reported as 1 to 30 nM.
Molecule Cc1cc(N2CCC3(CCN(C(=O)c4ccc([C@H]5C[C@@H](Nc6cnn(C)c(=O)c6Cl)CN(C)C5)cc4)CC3)CC2)cc(F)c1C1CCC(=O)NC1=O (stereo partly drawn) [Compound 288] has a DC50 [1] of under 1 nM and a DC50 [2] of under 1 nM.
With CN1C[C@H](Nc2cnn(C)c(=O)c2Cl)C[C@H](c2ccc(C(=O)N3CCC4(CC3)CN(c3ccc(C5CCC(=O)NC5=O)c(F)c3)C4)cc2)C1 (stereo partly drawn) [Compound 289] the DC50 [1] was under 1 nM and the DC50 [2] was over 30 nM.
For Cc1cc(N2CC3(CCN(C(=O)c4ccc([C@H]5C[C@@H](Nc6cnn(C)c(=O)c6Cl)CN(C)C5)cc4)CC3)C2)ccc1C1CCC(=O)NC1=O (stereo partly drawn) [Compound 290], the DC50 [1] was 1 to 30 nM and the DC50 [2] was over 30 nM.
For Cc1cc(N2CC3(CCN(C(=O)c4ccc([C@H]5C[C@@H](Nc6cnn(C)c(=O)c6Br)CN(C)C5)cc4)CC3)C2)ccc1C1CCC(=O)NC1=O (stereo partly drawn) [Compound 291], the DC50 [1] was under 1 nM and the DC50 [2] was 1 to 30 nM.
Cc1cc(N2CCC3(CC2)CN(C(=O)c2ccc([C@H]4C[C@@H](Nc5cnn(C)c(=O)c5Br)CN(C)C4)cc2)C3)ccc1C1CCC(=O)NC1=O (stereo partly drawn) [Compound 292] gave a DC50 [1] of under 1 nM and a DC50 [2] of 1 to 30 nM.
In the case of CN1C[C@H](Nc2cnn(C)c(=O)c2Cl)C[C@H](c2ccc(C(=O)N3CCC4(CC3)CCN(c3ccc5c(C6CCC(=O)NC6=O)nccc5c3)CC4)cc2)C1 (stereo partly drawn) [Compound 293], the DC50 [1] is reported as under 1 nM and the DC50 [2] is reported as 1 to 30 nM.
CN1C[C@H](Nc2cnn(C)c(=O)c2Br)C[C@H](c2ccc(C(=O)N3CCC4(CC3)CCN(c3ccc5c(C6CCC(=O)NC6=O)nccc5c3)CC4)cc2)C1 (stereo partly drawn) [Compound 294] was tested, and the DC50 [1] was under 1 nM and the DC50 [2] was under 1 nM.

Reference: US20260306640A1, “TECHNOLOGIES TARGETING CELL STATES” (Auron Therapeutics, Inc., priority 2023, published 2026)
